For one test, the target named is T1, CDK5/p25 (Homo sapiens, UniProt Q00535).
T1 construct: made in house
The experiment in a line: In vitro kinase assay CDK5/p25, [γ-33P]ATP, histone H1 substrate. The test is classed as biochemical. On the procedure:
(§1) It was also tested as positive control and its IC50 values were compared to those obtained for the compounds under study.
(§2) Buffer A: MgCl2 (10 mM), 1 mM ethylene glycol-bis(2-aminoethylether)-N,N,N’,N’- tetraacetic acid (EGTA), 1 mM dithiothreitol (DTT), 25 mM Tris-HCl pH 7.5, 50 μg heparin/mL. Buffer B: β-Glycerophosphate (60 mM), 30 mM p-nitrophenylphosphate, 25 mM 3-(N-morpholino) propanesulfonic acid (Mops) (pH 7.2), 5 mM EGTA, 15 mM MgCl2, 1 mM DTT, 0.1 mM sodium vanadate.
(§3) Blank values were substracted and activities expressed in % of the maximal activity, i.e., in the absence of inhibitors. Controls were performed with appropriate dilutions of dimethylsulfoxide (DMSO). IC50 values were calculated from dose-response curves established by Sigma-Plot graphs. The GSK-3, CK1, DYRK1A and CLK1 peptide substrates were obtained from Proteogenix (Oberhausbergen, France).
(§4) CDK5/p25. (Human, recombinant) was prepared as previously described. […] ATP (3000 Ci/mmol; 10 mCi/mL) in a final volume of 30 μL. After 30 min incubation at 30 °C, 25 μL aliquots of supernatant were spotted onto sheets of P81 phosphocellulose paper (Whatman) and 20 s later, the filters were washed eight times (for at least 5 min each time) in a solution of 10 mL phosphoric acid/L of water. The wet filters were counted in the presence of 1 mL ACS (Amersham, UK) scintillation fluid.

In another test the target is CK1δ/ε. The test is described as follows: In vitro kinase assay CK1δ/ε, CK1-specific peptide substrate. In kind it is biochemical, Porcine. On the procedure:
as §1, §2, §3, §4
CK1δ/ε. (Porcine brain, native) was assayed as described for CDK5/p25 but using the CK1-specific peptide substrate […]pSAYSITA [37].

In the next test the target is DYRK1A (Rattus norvegicus, UniProt Q63470). The experiment in a line: In vitro kinase assay DYRK1A, Woodtide substrate. The test is classed as biochemical. The method, then: as §1, §2, §3, §4
The target in a further test is GSK-3α/β. The experiment in a line: In vitro kinase assay GSK-3α/β, GS-1 peptide substrate. In kind it is biochemical, Porcine. On the procedure:
as §1, §2, §3, §4
GSK-3α/β. (Porcine brain, native) was assayed, as described for CDK5/p25 but in buffer A and using a GSK-3 specific substrate (GS-1: […]pSEDEEE) (pS stands for phosphorylated serine).

For the next test, the target named is CLK1 (Homo sapiens, UniProt P49759). The experiment in a line: biochemical.
[1] abbreviates: 15 μM ATP, 30 min, 30 °C, triplicate, <50% inhibition at 10 μM = IC50 >10 μM.

Read-outs that look alike come from different tables or passages of the source.

Chain of CLK1 (P49759 whole entry): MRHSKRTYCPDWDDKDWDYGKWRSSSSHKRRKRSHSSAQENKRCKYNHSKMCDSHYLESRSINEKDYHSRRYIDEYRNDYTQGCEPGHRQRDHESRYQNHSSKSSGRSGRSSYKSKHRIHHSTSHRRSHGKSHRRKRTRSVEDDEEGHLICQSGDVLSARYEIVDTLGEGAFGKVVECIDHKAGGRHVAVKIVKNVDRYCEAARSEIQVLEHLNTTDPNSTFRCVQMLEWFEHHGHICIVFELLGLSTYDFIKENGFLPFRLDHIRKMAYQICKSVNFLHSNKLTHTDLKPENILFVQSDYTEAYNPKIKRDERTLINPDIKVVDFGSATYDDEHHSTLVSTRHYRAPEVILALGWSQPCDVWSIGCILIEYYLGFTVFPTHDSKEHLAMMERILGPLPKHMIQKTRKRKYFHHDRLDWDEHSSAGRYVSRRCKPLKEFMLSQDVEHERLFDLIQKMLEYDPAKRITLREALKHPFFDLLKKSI
T1 sequence (Q00535 whole entry): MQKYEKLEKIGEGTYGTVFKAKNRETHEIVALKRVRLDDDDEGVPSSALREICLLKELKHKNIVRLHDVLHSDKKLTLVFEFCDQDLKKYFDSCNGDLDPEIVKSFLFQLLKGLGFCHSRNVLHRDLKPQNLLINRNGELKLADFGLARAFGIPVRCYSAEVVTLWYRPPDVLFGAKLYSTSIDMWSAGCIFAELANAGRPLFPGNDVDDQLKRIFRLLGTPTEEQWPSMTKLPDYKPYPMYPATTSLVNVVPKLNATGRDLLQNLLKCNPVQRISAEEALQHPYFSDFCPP
T1 sequence (Q15078 99-307 partner limits assumed): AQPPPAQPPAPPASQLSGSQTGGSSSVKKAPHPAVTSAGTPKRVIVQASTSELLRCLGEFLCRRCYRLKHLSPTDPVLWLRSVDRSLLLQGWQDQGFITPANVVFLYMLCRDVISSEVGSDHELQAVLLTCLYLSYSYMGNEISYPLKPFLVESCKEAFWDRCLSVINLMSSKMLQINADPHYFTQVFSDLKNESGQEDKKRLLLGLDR

By IC50 is commonly meant the midpoint of a concentration-inhibition curve. Regarding `N#Cc1nc2ccc3ncn(C4CC4)c(=O)c3c2s1` [Compound 11a, 8-Cyclopropyl-9-oxo-8,9-dihydrothiazolo[5,4-f]quinazoline-2-carbonitrile], the IC50 was above 10000 nM against CDK5/p25; above 10000 nM at CK1δ/ε (setting [1]); 3300 nM at DYRK1A; 3300 nM at GSK-3α/β; 1100 nM on CLK1.
On to `COCCn1cnc2ccc3nc(C#N)sc3c2c1=O` [Compound 11b, 8-(2-Methoxyethyl)-9-oxo-8,9-dihydrothiazolo[5,4-f]quinazoline-2-carbonitrile], for which the IC50 against CDK5/p25 was above 10000 nM; at CK1δ/ε (setting [1]) it was above 10000 nM; at DYRK1A, 7800 nM; against GSK-3α/β (setting [1]), at least 10000 nM; against CLK1, 4100 nM.
In the case of `COCCCn1cnc2ccc3nc(C#N)sc3c2c1=O` [Compound 11c, 8-(3-Methoxypropyl)-9-oxo-8,9-dihydrothiazolo[5,4-f]quinazoline-2-carbonitrile], the IC50 against CDK5/p25 was above 10000 nM; against CK1δ/ε (setting [1]) it was above 10000 nM; against DYRK1A, 7700 nM; at GSK-3α/β, 1200 nM; at CLK1 it was 1300 nM.
For the molecule `COC(=N)c1nc2ccc3ncn(C4CC4)c(=O)c3c2s1` [Compound 12a, Methyl 8-cyclopropyl-9-oxo-8,9-dihydrothiazolo[5,4-f]quinazoline-2-carbimidate], the IC50 at CDK5/p25 is 3900 nM; against CK1δ/ε (setting [1]) it was above 10000 nM; on DYRK1A (read-out: DYRK1A IC50), 91 nM; at GSK-3α/β, 82 nM; against CLK1, 31 nM.
Turning to `COCCCn1cnc2ccc3nc(C(=N)OC)sc3c2c1=O` [Compound 12c, Methyl 8-(3-methoxypropyl)-9-oxo-8,9-dihydrothiazolo[5,4-f]quinazoline-2-carbimidate], the IC50 on CDK5/p25 is above 10000 nM; on CK1δ/ε (setting [1]) it was above 10000 nM; at DYRK1A, 320 nM; against GSK-3α/β, 120 nM; against CLK1, 210 nM.
In the case of `COC(=N)c1nc2ccc3ncn(C(C)C)c(=O)c3c2s1` [Compound 12d, Methyl 8-isopropyl-9-oxo-8,9-dihydrothiazolo[5,4-f]quinazoline-2-carbimidate], the IC50 worked out at 3000 nM at CDK5/p25; 5400 nM against CK1δ/ε; 140 nM against DYRK1A; 41 nM on GSK-3α/β; 160 nM on CLK1.
As for `COC(=N)c1nc2ccc3ncn(C4CCCC4)c(=O)c3c2s1` [Compound 12e, Methyl 8-cyclopentyl-9-oxo-8,9-dihydrothiazolo[5,4-f]quinazoline-2-carbimidate], the half-maximal inhibitory concentration (IC50) was 4900 nM at CDK5/p25; above 10000 nM against CK1δ/ε (setting [1]); 72 nM against DYRK1A; 28 nM at GSK-3α/β; 290 nM on CLK1.
The like results for `COC(=N)c1nc2ccc3ncn(C4CCC4)c(=O)c3c2s1` [Compound 12f, Methyl 8-cyclobutyl-9-oxo-8,9-dihydrothiazolo[5,4-f]quinazoline-2-carbimidate] were, in that order, above 10000 nM, above 10000 nM, 130 nM, 160 nM and 91 nM.
Taken in the same sequence, the figures for `COC(=N)c1nc2ccc3ncn(C4CCCCC4)c(=O)c3c2s1` [Compound 12g, Methyl 8-cyclohexyl-9-oxo-8,9-dihydrothiazolo[5,4-f]quinazoline-2-carbimidate] were 1800 nM, above 10000 nM, 170 nM, 30 nM and 380 nM.
Turning to `COC(=N)c1nc2ccc3ncn(N(C)C)c(=O)c3c2s1` [Compound 12h, Methyl 8-dimethylamino-9-oxo-8,9-dihydrothiazolo[5,4-f]quinazoline-2-carbimidate], the IC50 at CDK5/p25 was above 10000 nM; against CK1δ/ε (setting [1]) it was above 10000 nM; at DYRK1A (read-out: DYRK1A IC50), 500 nM; at GSK-3α/β it was 300 nM; on CLK1, 990 nM.
Take `COC(=N)c1nc2ccc3ncn(CCN4CCOCC4)c(=O)c3c2s1` [Compound 12j, Methyl 8-(2-morpholinoethyl)-9-oxo-8,9-dihydrothiazolo[5,4-f]quinazoline-2-carbimidate]: the IC50 against CDK5/p25 was above 10000 nM; on CK1δ/ε (setting [1]), above 10000 nM; on DYRK1A, 200 nM; at GSK-3α/β it was 1200 nM; against CLK1, 690 nM.
With `COC(=N)c1nc2ccc3ncn(-c4ccc(C)cc4)c(=O)c3c2s1` [Compound 12k, Methyl 8-(p-tolyl)-9-oxo-8,9-dihydrothiazolo[5,4-f]quinazoline-2-carbimidate], the IC50 is above 10000 nM against CDK5/p25; above 10000 nM at CK1δ/ε (setting [1]); 380 nM at DYRK1A; 510 nM on GSK-3α/β; 880 nM on CLK1.
On to `COC(=N)c1nc2ccc3ncn(-c4ccc(OC)cc4)c(=O)c3c2s1` [Compound 12l, Methyl 8-(4-methoxyphenyl)-9-oxo-8,9-dihydrothiazolo[5,4-f]quinazoline-2-carbimidate], for which the IC50 against CDK5/p25 is above 10000 nM; at CK1δ/ε (setting [1]), above 10000 nM; at DYRK1A, 3000 nM; at GSK-3α/β it was 1200 nM; against CLK1 it was 7900 nM.
On to `COC(=N)c1nc2ccc3ncn(-c4ccc(N(C)C)cc4)c(=O)c3c2s1` [Compound 12m, Methyl 8-(4-dimethylaminophenyl)-9-oxo-8,9-dihydrothiazolo[5,4-f]quinazoline-2-carbimidate], for which the IC50 at CDK5/p25, at CK1δ/ε (setting [1]), at DYRK1A, on GSK-3α/β (setting [1]) and on CLK1 was above 10000 nM in each case.
Take `COC(=N)c1nc2ccc3ncn(C)c(=O)c3c2s1` [Compound 12n, Methyl 8-methyl-9-oxo-8,9-dihydrothiazolo[5,4-f]quinazoline-2-carbimidate]: the IC50 was above 10000 nM against CDK5/p25; above 10000 nM against CK1δ/ε (setting [1]); 180 nM on DYRK1A; 1700 nM at GSK-3α/β; 80 nM on CLK1.
As for `N=C(OCc1ccccc1)c1nc2ccc3ncn(C4CC4)c(=O)c3c2s1` [Compound 13a, Benzyl 8-cyclopropyl-9-oxo-8,9-dihydrothiazolo[5,4-f]quinazoline-2-carbimidate], the IC50 against CDK5/p25 is above 10000 nM; against CK1δ/ε (setting [1]), above 10000 nM; on DYRK1A, 60 nM; against GSK-3α/β (setting [1]) it was 100 nM; against CLK1, 60 nM.
`COCCn1cnc2ccc3nc(C(=N)OCc4ccccc4)sc3c2c1=O` [Compound 13b, Benzyl 8-(2-methoxyethyl)-9-oxo-8,9-dihydrothiazolo[5,4-f]quinazoline-2-carbimidate]: the IC50 at CDK5/p25 was above 10000 nM; against CK1δ/ε (setting [1]) it was above 10000 nM; against DYRK1A it was 290 nM; on GSK-3α/β it was 690 nM; against CLK1, 590 nM.
Turning to `COCCCn1cnc2ccc3nc(C(=N)OCc4ccccc4)sc3c2c1=O` [Compound 13c, Benzyl 8-(3-methoxypropyl)-9-oxo-8,9-dihydrothiazolo[5,4-f]quinazoline-2-carbimidate], the IC50 on CDK5/p25 is above 10000 nM; at CK1δ/ε (setting [1]) it was above 10000 nM; at DYRK1A, 160 nM; against GSK-3α/β it was 110 nM; on CLK1, 480 nM.
With `N=C(OCc1ccccc1)c1nc2ccc3ncn(C4CCCC4)c(=O)c3c2s1` [Compound 13e, Benzyl 8-cyclopentyl-9-oxo-8,9-dihydrothiazolo[5,4-f]quinazoline-2-carbimidate], the IC50 at CDK5/p25 was above 10000 nM; against CK1δ/ε (setting [1]), above 10000 nM; at DYRK1A, 62 nM; against GSK-3α/β, 28 nM; at CLK1, 320 nM.
For `N=C(OCc1ccccc1)c1nc2ccc3ncn(C4CCC4)c(=O)c3c2s1` [Compound 13f, Benzyl 8-cyclobutyl-9-oxo-8,9-dihydrothiazolo[5,4-f]quinazoline-2-carbimidate], the IC50 was above 10000 nM on CDK5/p25; above 10000 nM against CK1δ/ε (setting [1]); 59 nM against DYRK1A; 71 nM at GSK-3α/β; 71 nM at CLK1.
For the molecule `CCOC(=N)c1nc2ccc3ncn(C(C)C)c(=O)c3c2s1` [Compound 14d, Ethyl 8-isopropyl-9-oxo-8,9-dihydrothiazolo[5,4-f]quinazoline-2-carboximidoate], the IC50 is above 10000 nM at CDK5/p25, above 10000 nM at CK1δ/ε (setting [1]), 370 nM on DYRK1A and 340 nM against CLK1.
As to `COc1ccc2c(c1)[nH]c1c(C)nccc12` [Harmine, reference compound], the results for the IC50 at CK1δ/ε and against GSK-3α/β (setting [1]) were 1500 nM and above 10000 nM, respectively.

The values above are taken from article PMC6273584, “Synthesis of Thiazolo[5,4-f]quinazolin-9(8H)-ones as Multi-Target Directed Ligands of Ser/Thr Kinases” (Molecules, 2016).
